How the values were obtained:
[1] = Daily mean body weight of treated fat fed, STZ treated rats; type: in vivo, rat; conditions: 250 mg/kg q.d.; FIG. 3
Protocol: FIG. 3 is a line graph showing the mean body weight […] in fat fed, STZ treated rats administered with GELUCIRE™ vehicle only; and 3-hydroxy-4-(3-methyl-2-butenyl)-5-methoxystilbene-2-carboxylic acid (Compound A). -∘- represents vehicle; and -▪- represents Compound A administered at 250 mg/kg q.d. Animals were administered the vehicle and compounds at 24, 48, 72 and 96 h, and serum triglyceride levels were measured at 0, 30, 51, 54, 75 and 80 hours after the oral administration. All data points N=8. *P<0.05 (analysis of variance (ANOVA), one factor).
(§1) Male Sprague Dawley rats arrival from Charles River Laboratories, Hollister, Calif., were fed a high fat (20% by weight) diet (TD 78463) obtained from Harlan Teklad, Madison, Wis., which was stored at 4° C. prior to use. Administration of a high fed diet is a well-known method of inducing hypertriglyceridemia in rats.
(§2) Compound A formulations were prepared fresh daily. The appropriate amount of Compound A in GELUCIRE™ was administered by oral gavage at a volume of 2.5 ml/kg of body weight. Animals were fasted at 8:00 am each day.

[2] = system: fat fed, STZ treated male Sprague Dawley rats; test: In vivo hypotriglyceridemic activity: serum triglyceride levels in fat-fed STZ treated rats; parameters: species or system rat; conditions: 250 mg/kg body weight q.d.
Description: This example illustrates the effectiveness of the stilbenoids of formula (I) in reducing serum triglyceride levels in fat-fed STZ treated male Sprague Dawley rats, i.e., an art-recognized model of hypertriglyceridemia.
This example illustrates the effectiveness of the stilbenoids of formula (I), e.g. longistyline A-2-carboxylic acid (Compound A) in reducing serum triglyceride levels in fat fed, STZ treated male Sprague Dawley rats, i.e., an art recognized model of hypertriglyceridemia. […]
Blood samples from tail snips bleeds were collected six hours after the dose on day one, and three (3) and six (6) hours after the administration of the dose on days 2 through 4 into M brand (Becton Dickinson, Franklin Lakes, N.J.) serum separator tubes, and centrifuged at 12,000 rpm for 10 minutes. Serum was removed and triglyceride levels were measured using enzymatic […] methods (M. W. McGowan, et al., Clin. Chem. 29, 538 (1983) and P Trinder, Ann. Clin. Biochem. 6, 24 (1969)) using Sigma Diagnostic Kits, Sigma Chemical Company, St. Louis, Mo.
Triglyceride levels are expressed as the mean ±SEM. Data were analyzed by one-way analysis of variance (ANOVA), followed by post-hoc Fisher's protected least squares difference (PLSD) tests. […]

[3] = Daily mean food consumption of treated fat fed, STZ treated rats; type: in vivo, rat; conditions: 250 mg/kg q.d.; FIG. 4
Protocol: FIG. 4 is a line graph showing the mean food consumption (mg) in fat fed, STZ treated rats administered with GELUCIRE™ vehicle only; and 3-hydroxy-4-(3-methyl-2-butenyl)-5-methoxystilbene-2-carboxylic acid (Compound A). -∘- represents vehicle; and -▪- represents Compound A administered at 250 mg/kg q.d. Animals were administered the vehicle and compounds at 24, 48, 72 and 96 h, and serum triglyceride levels were measured at 0, 30, 51, 54, 75 and 80 hours after the oral administration. All data points N=8. *P<0.05 (analysis of variance (ANOVA), one factor).
as §1, §2

[4] = reported by Arichi et al. 1982; cited from earlier work

**Q.** What does the source list for `COc1cc(/C=C/c2ccccc2)c(C(=O)O)c(O)c1CC=C(C)C` [Compound A, 3-hydroxy-4-(3-methyl-2-butenyl)-5-methoxystilbene-2-carboxylic acid]?
**A.** Gain in rat body weight over the course of treatment [1]: normal and similar among the treatment groups; Serum triglyceride (TG) levels compared with vehicle only ([2]; oral gavage in GELUCIRE vehicle, at each of the time points, p<0.05, FIG. 2): significantly lower; Mean TG levels compared with GELUCIRE vehicle treatment group at individual sampling times ([2]; from day 2 through the end of treatment): significantly lower; Food intake (daily mean food consumption) [3]: not effected by the treatments

**Q.** Which Liver lipid levels [4] does the source give for `OC[C@H]1O[C@@H](Oc2cc(O)cc(/C=C/c3ccc(O)cc3)c2)[C@H](O)[C@@H](O)[C@@H]1O` [Piceid, 3,4′,5-trihydroxystilbene-3-O-β-D-glucopyranoside] here?
**A.** The Liver lipid levels was “lower”.

**Q.** What about the Serum triglyceride levels [4] of the same molecule?
**A.** The Serum triglyceride levels was “lower”.

**Q.** Which Serum triglyceride levels [4] does the source give for `OC[C@H]1OC(Oc2c(O)cc(O)cc2C=Cc2ccc(O)cc2)[C@H](O)[C@@H](O)[C@@H]1O` (stereo partly drawn) [2,3,5,4′-tetrahydroxy stilbene-2-O-D-glucoside] here?
**A.** The Serum triglyceride levels was “reduce”.

Source: US20020058708A1, “Compositions containing hypotriglyceridemically active stilbenoids” (priority 2000, published 2002)
